Experiments:
IL-12 = IL-12 production in BMDMs, intracellular staining, flow cytometry; format: cell-based, mouse
Experimental: (§1) BMDMs were treated with indole or DMF control for 18 hours or 4 hours, followed by stimulation with LPS (2 ug/ml or 250 ng/ml) for 4 hours in the presence of Golgiplug. BMDMs were then stained for intracellular TNF or IL-12 and analyzed by flow cytometry.
(§2) First, pro-inflammatory cytokine production in macrophages was investigated. […] In the DC study described herein, DCs were typically conditioned with indole during their development from bone marrow precursors in order to mimic the proximity of DC progenitor cells to indole in the intestinal microenvironment during development. […] BMDMs were treated for 18 hours with indole, followed by a 4 hour stimulation with either a very high (2 ug/ml) or low (250 ng/ml) dose of LPS.
(§3) Additionally, to determine if recently arrived macrophage precursors might also be affected, BMDMs were next treated for just 4 hours with indole, followed by a […] stimulation with the same LPS concentrations.
(§4) To address the question of indole and AhR dependence in macrophages, experiments using BMDMs derived from AhR-knockout mice were run alongside wild-type littermate controls. Specifically, flow cytometric analysis of BMDMs was performed on WT or AhR-KO mice and treated with indole or DMF control for 18 hours. BMDMs were stimulated for 4 hours with LPS (50 ng/ml) in the presence of Golgiplug, then stained for intracellular TNF (left panels) and IL-12 (right panels).
(§5) The inventors performed a series of assays where bone marrow derived macrophages (BMDMs), bone marrow derived dendritic cells (BMDCs), and splenic dendritic cells (splenic DCs), were exposed to a series of TDMMs, including indole, indole-3-acetate (I3AT), 5-hydroxyindole (5HI), and indole-3-pyruvate (I3P), as well as indole-3-carbinol (I3C; a plant derived compound) to be used for a positive control (1 mM for 24 hours). The BMDMs and BMDCs were stimulated with LPS for 4 hours and assayed at day 7 for expression of various pro-inflammatory cytokines. In a similar assay, the BMDMs and BMDCs were stimulated with LPS or CpG, respectively, for 15 minutes and assayed for pAKT and pERK signaling, which is a reflection of pro-inflammatory response.
(§6) Bone marrow was harvested as described above and cultured at a density of 1×10^6 cells in 10 ml complete media supplemented with 10 ng/ml M-CSF (Peprotech) in 100 mm×15 mm petri dishes. Media with cytokine was replenished on day 3. Adherent and semi-adherent cells were recovered on day 7, plated, and treated with indole prior to downstream experiments.

Salmonella Typhimurium = assay: Salmonella invasion of and intracellular survival in J774.A1 macrophages; format: cell-based
TNF [1] = assay: TNF production in BMDMs, intracellular staining, flow cytometry; format: cell-based, mouse
Experimental: as §1, §2, §3, §4, §5, §6

DSS colitis = assay: BMDC transfer in murine DSS colitis model; format: in vivo, mouse; conditions: mice transferred i.p. with BMDCs conditioned with indole, 5% DSS day 7-14, endpoint day 20
Experimental: FIGS. 21A and 21B graphically illustrate that the in vivo transfer of indole-conditioned DCs prevented shortening of colon in a murine DSS colitis model. BMDCs were cultured with indole, RA, or DMF from day 3. Two million BMDCs were transferred via i.p. injection to WT C57BL/6 mice on days 0, 6, and 9 of the experiment. Mice received 5% dextran sulfate sodium (DSS) ad libitum in their drinking water from day 7 through day 14. Mice were euthanized on day 20 and colons were immediately removed and measured for length (FIG. 21A) and weight (FIG. 21B). n=4 mice/group. *p<0.05 by one-way ANOVA followed by Dunnett's post-test, comparing to unmanipulated control colons.
A hallmark pathological sign of colitis is shortening of the colon, mediated by abscesses forming in the intestinal crypts that disrupt the mucosal architecture and are later replaced by scar tissue. […] Shortening of the colon is an established indicator of colitis pathology in the murine model of DSS colitis.
BMDCs were cultured with indole, RA, or DMF from day 3 as described above. BMDCs were washed, counted, and resuspended in sterile PBS (Ca—Mg—) for transfer to WT C57BL/6 recipients. Two million BMDCs were transferred via i.p. injection on days 0, 6, and 9 of the experiment. Mice received 5% dextran sulfate sodium (DSS, MW=36,000-50,000; MP Biomedicals) ad libitum in their drinking water from day 7 through day 14. […]

Erk = assay: pERK signaling in BMDCs; format: cell-based, mouse; conditions: 1 mM TDMM 24 hours, CpG (5 uM) 15 minutes
Experimental: as §5

TNF [2] = assay: TNF production in BMDCs, intracellular staining, flow cytometry; format: cell-based, mouse
naïve CD4+CD25− T cells = assay: T cell activation in the presence of BMDC supernatant: Treg induction; format: cell-based, mouse; conditions: T cells on α-CD3/α-CD28 plates, 72 hours
TNF [3] = assay: TNF production in DC2.4 cell line, intracellular staining, flow cytometry; format: cell-based, murine
Experimental: Intracellular staining was performed to assess TNF production.
FIG. 8 illustrates that indole synergizes with TGF-β to inhibit TNF production in DCs. Flow cytometric analysis was performed on DC2.4 cells treated with indole or DMF control for 24 hours in the presence or absence of TGF-β (10 ng/ml). […] Shaded gray areas represent unstimulated samples. Representative histograms from one of three independent experiments.
One important way that DCs shape local immune responses is through the production of cytokines. Cytokine production was addressed in indole-conditioned dendritic cells, first using the murine dendritic cell line, DC2.4. Cells pre-treated with physiologically relevant doses of indole produced less TNF upon stimulation with the bacterial surface component and TLR4 ligand, LPS. Production of TNF was reduced by 50% following treatment with 1 mM indole (FIG. 1). This response is biologically important as LPS serves as the prototypical endotoxin, present on the surface of virtually all gram-negative bacteria including gut-resident commensal strains.

TNF [4] = assay: TNF production in splenic CD11c+ DCs ex vivo; format: cell-based, mouse; conditions: indole overnight
Text: To evaluate the possible role of AhR in mediating the anti-inflammatory effects of indole on DCs, AhR-deficient mice were acquired and analyzed splenic and bone marrow-derived DCs. Splenocytes from AhR-deficient and WT mice were first treated overnight with indole, followed by stimulation with heat-killed S. typhimurium.

[5] = BMDMs from WT or AhR-KO mice, 1 mM indole 18 hours, LPS 50 ng/ml 4 hours
[6] = BMDMs, 1 mM TDMM 24 hours, LPS 1 ug/ml 4 hours
[7] = BMDMs, 1 mM indole 18 hours, LPS 2 ug/ml or 250 ng/ml 4 hours

SMILES: c1ccc2[nH]ccc2c1 [Indole, indole]
- reduction of IL-12 production (IL-12; [5]): approximately 2 fold
- IL-12 (IL-12; [6]): ↓↓↓
- inhibition of IL-12 production (IL-12; [7]): ~2 fold
- intracellular survival of Salmonella in J774.A1 macrophages (Salmonella Typhimurium): not significantly affected
- decrease of Salmonella invasion of J774.A1 macrophages (Salmonella Typhimurium; Salmonella exposed to indole): 2 fold
- reduction of TNF production (TNF [1]; [5]): approximately 2 fold
- TNF (TNF [1]; [6]): ↓↓↓
- inhibition of TNF production (TNF [1]; [7]): ~2 fold
- average colon length (DSS colitis): ~6 cm
- pERK (Erk): ↓↓
- reduction in TNF (TNF [2]; BMDCs exposed to indole from day 3 of 7 day culture, LPS stimulation): 30%
- inhibition of TNF production (TNF [2]; BMDCs, indole for 18 hours followed by TLR stimulation): ~2 fold
- Treg induction by supernatant of conditioned BMDCs relative to solvent control DCs (naïve CD4+CD25− T cells): No significant induction of Tregs
- reduction of TNF production (TNF [3]; DC2.4, 1 mM indole pre-treatment, LPS stimulation): 50%
- inhibition of TNF production with concurrent TGF-β treatment (TNF [3]; DC2.4, indole 24 hours with TGF-β (10 ng/ml), LPS 1 ug/ml 4 hours): marked synergistic effect
- inhibition of TNF production (TNF [4]; splenic CD11c+ DCs, LPS or heat-killed S. typhimurium): ≥ 2 fold
- inhibition of TNF production (TNF [4]; splenic DCs from AhR−/− mice, heat-killed S. typhimurium): 2 fold
- inhibition of TNF production (TNF [4]; splenic DCs from WT mice, heat-killed S. typhimurium): 2 fold
